One assay concerns U266 cells. Put plainly: MTT antiproliferative assay, U266. The settings on record: Homo sapiens, U-266, 48 h, read-out: U266 IC50. Background: Tetrazolium dyes change colour on reduction, which living cells bring about.
Assay [1] relates to HDACs (HeLa nucleus extract containing a mixture of HDAC isoforms). Put plainly: HDAC inhibitory assay with HeLa nucleus extract. The settings on record: at the concentration of 1 µM.
Another assay relates to U937 cells. Description: MTT antiproliferative assay, U937. The settings on record: Homo sapiens, U-937, 48 h, read-out: U937 IC50.
The test system of a further assay is HepG2 cells. Description: MTT antiproliferative assay, HepG2. As to conditions: Homo sapiens, HepG2, 48 h, read-out: HepG2 IC50.

Description for HepG2 cells: (§1) The stock solutions of tested compounds were diluted with culture medium. […] Then, the cells were treated with compound sample at various concentrations for 48 h. Afterward, 20 MTT working solution (5 mg/ml) was added to each well and incubated for another 4 h. After incubation, the medium formed from MTT was extracted by adding DMSO (200 µl). The optical density (OD) at 490 nm and 630 nm were measured by Universal Microplate Spectrophotometer. […] The IC50 values were calculated with Origin 7.5 software (Originlab Corporation, Northampton, MA), and standard deviations of the IC50 values were obtained through at least 3 independent experiments.
Description for U266 cells: as §1
To evaluate the antiproliferative activity of hydroxamic acid containing molecules, MTT assays were performed using U937, U266, and HepG2 cell lines.
Description for U937 cells: as §1

One may read the IC50 as the point on the concentration scale where inhibition reaches its midpoint. As to `CCCNNC(=O)c1ccc(NC(=O)CCCc2cn(C)c3ccccc23)cc1` [Compound I13e2, 4-(1-Methyl-1H-indol-3-yl)-N-[4-(N′-propyl-hydrazinocarbonyl)-phenyl]-butyramide], the IC50 in the assay with U266 cells stood at 0.71 ± 0.11 µM. Also, in assay [1], the “HDACs, percentage inhibition rate (PIR)” value came out at 29.68 ± 2.06%.

As for `CCCCNNC(=O)c1ccc(NC(=O)CCCc2cn(CC)c3ccccc23)cc1` [Compound I3e3, N-[4-(N′-Butyl-hydrazinocarbonyl)-phenyl]-4-(1-ethyl-1H-indol-3-yl)-butyramide], the IC50 in the assay on U266 cells was 1.45 ± 0.1 µM. The “HDACs, percentage inhibition rate (PIR)” value in assay [1] amounted to 31.94 ± 1.51%.

As to `O=C(CCCc1cn(Cc2cccc(Cl)c2)c2ccccc12)Nc1ccc(C(=O)NO)cc1` [Compound I9, 4-(4-(1-(3-Chloro-benzyl)-1H-indol-3-yl)butanamido)-N-hydroxybenzamide], the 50% inhibitory concentration (IC50) came to 1 ± 0.15 µM in the assay with U937 cells, 0.65 ± 0.04 µM in the assay on U266 cells and 5.67 ± 0.06 µM with HepG2 cells. Further, in assay [1], the “HDACs, percentage inhibition rate (PIR)” value stood at 56.68 ± 2.42%.

For `CCCCNNC(=O)c1ccc(NC(=O)CCCc2cn(Cc3ccccc3)c3ccccc23)cc1` [Compound I2e3, 4-(1-Benzyl-1H-indol-3-yl)-N-[4-(N′-butyl-hydrazinocarbonyl)-phenyl]-butyramide], in the assay with U266 cells, the half-maximal inhibitory concentration (IC50) worked out at 1.71 ± 0.07 µM. Moreover, the “HDACs, percentage inhibition rate (PIR)” value in assay [1] came out at 51.41 ± 2.78%.

`CCCNNC(=O)c1ccc(NC(=O)CCCc2cn(Cc3cccc(F)c3)c3ccccc23)cc1` [Compound I7e2, 4-[1-(3-Fluoro-benzyl)-1H-indol-3-yl]-N-[4-(N′-propyl-hydrazinocarbonyl)-phenyl]-butyramide]: in the assay on U266 cells, the IC50 stood at 1.32 ± 0.08 µM. Moreover, in assay [1], the “HDACs, percentage inhibition rate (PIR)” value stood at 30.45 ± 3.38%.

Consider `CCCNNC(=O)c1ccc(NC(=O)CCCc2cn(Cc3ccccc3)c3ccccc23)cc1` [Compound I2e2, 4-(1-Benzyl-1H-indol-3-yl)-N-[4-(N′-propyl-hydrazinocarbonyl)-phenyl]-butyramide], for which, in the assay on U266 cells, the concentration for half-maximal inhibition (IC50) amounted to 1.11 ± 0.08 µM. For the same molecule, the “HDACs, percentage inhibition rate (PIR)” value in assay [1] (1 µM) worked out at 57.46 ± 2.06%.

As for `O=C(CCCc1cn(Cc2ccccc2)c2ccccc12)Nc1ccc(C(=O)NO)cc1` [Compound I2, 4-(4-(1-benzyl-1H-indol-3-yl)butanamido)-N-hydroxybenzamide], the IC50 in the assay on U937 cells worked out at 0.95 ± 0.04 µM; with U266 cells, 0.48 ± 0.09 µM; with HepG2 cells, 3.63 ± 0.26 µM. Moreover, in assay [1], the “HDACs, percentage inhibition rate (PIR)” value is recorded as 78.94 ± 3.41%.

On to `CCCNNC(=O)c1ccc(NC(=O)CCCc2cn(Cc3c(F)cccc3F)c3ccccc23)cc1` [Compound I10e2, 4-[1-(2,6-Difluoro-benzyl)-1H-indol-3-yl]-N-[4-(N′-propyl-hydrazinocarbonyl)-phenyl]-butyramide], for which the 50% inhibitory concentration (IC50) in the assay with U266 cells amounted to 0.74 ± 0.05 µM. For the same molecule, the “HDACs, percentage inhibition rate (PIR)” value in assay [1] was determined as 46.85 ± 2.06%.

With `CCCCn1cc(CCCC(=O)Nc2ccc(C(=O)NO)cc2)c2ccccc21` [Compound I12, 4-(4-(1-Butyl-1H-indol-3-yl)butanamido)-N-hydroxybenzamide], the IC50 came to 1.01 ± 0.03 µM with U937 cells, 0.12 ± 0.02 µM with U266 cells and 5.76 ± 0.65 µM in the assay with HepG2 cells. Besides, the “HDACs, percentage inhibition rate (PIR)” value in assay [1] worked out at 62.70 ± 1.63%.

`CCn1cc(CCCC(=O)Nc2ccc(C(=O)NO)cc2)c2ccccc21` [Compound I3, 4-(4-(1-Ethyl-1H-indol-3-yl)butanamido)-N-hydroxybenzamide]: the 50% inhibitory concentration (IC50) in the assay on U937 cells is 0.94 ± 0.04 µM; with U266 cells, 0.24 ± 0.03 µM; in the assay on HepG2 cells, 1.92 ± 0.05 µM. Besides, in assay [1], the “HDACs, percentage inhibition rate (PIR)” value worked out at 78.94 ± 2.34%.

As to `CCCNNC(=O)c1ccc(NC(=O)CCCc2c[nH]c3ccccc23)cc1` [Compound I1e2, 4-(1H-Indol-3-yl)-N-[4-(N′-propyl-hydrazinocarbonyl)-phenyl]-butyramide], the 50% inhibitory concentration (IC50) in the assay on U266 cells is 0.64 ± 0.02 µM. Further, in assay [1], the “HDACs, percentage inhibition rate (PIR)” value is recorded as 61.34 ± 3.56%.

On to `O=C(CCCc1cn(Cc2ccccc2C(F)(F)F)c2ccccc12)Nc1ccc(C(=O)NO)cc1` [Compound I5, 4-(4-(1-(2-Trifluoromethyl-benzyl)-1H-indol-3-yl)butanamido)-N-hydroxybenzamide], for which the 50% inhibitory concentration (IC50) is 4.42 ± 0.18 µM in the assay on U937 cells, 0.88 ± 0.07 µM in the assay with U266 cells and 6.17 ± 0.21 µM in the assay on HepG2 cells. Besides, in assay [1], the “HDACs, percentage inhibition rate (PIR)” value is 19.30 ± 1.60%.

For the molecule `CC(C)CNNC(=O)c1ccc(NC(=O)CCCc2c[nH]c3ccccc23)cc1` [Compound I1e4, 4-(1H-Indol-3-yl)-N-[4-(N′-isobutyl-hydrazinocarbonyl)-phenyl]-butyramide], the IC50 with U266 cells was determined as 16 ± 0.67 µM. Also, the “HDACs, percentage inhibition rate (PIR)” value in assay [1] was found to be 7.16 ± 1.50%.

For the molecule `CCCCn1cc(CCCC(=O)Nc2ccc(C(=O)NNCCC)cc2)c2ccccc21` [Compound I12e2, 4-(1-Butyl-1H-indol-3-yl)-N-[4-(N′-propyl-hydrazinocarbonyl)-phenyl]-butyramide], the IC50 in the assay with U266 cells came to 1.28 ± 0.12 µM. For the same molecule, the “HDACs, percentage inhibition rate (PIR)” value in assay [1] was 39.73 ± 1.84%.

Turning to `O=C(CCCc1cn(Cc2cccc(Br)c2)c2ccccc12)Nc1ccc(C(=O)NO)cc1` [Compound I8, 4-(4-(1-(3-Bromo-benzyl)-1H-indol-3-yl)butanamido)-N-hydroxybenzamide], the IC50 in the assay on U937 cells stood at 1.94 ± 0.17 µM; in the assay on U266 cells, 0.71 ± 0.06 µM; in the assay on HepG2 cells it was 6.45 ± 0.28 µM. In assay [1], the “HDACs, percentage inhibition rate (PIR)” value is listed as 15.87 ± 3.27%.

With `CCCCNNC(=O)c1ccc(NC(=O)CCCc2cn(CCCC)c3ccccc23)cc1` [Compound I12e3, N-[4-(N′-Butyl-hydrazinocarbonyl)-phenyl]-4-(1-butyl-1H-indol-3-yl)-butyramide], the IC50 in the assay on U266 cells is 1.44 ± 0.31 µM. For the same molecule, the “HDACs, percentage inhibition rate (PIR)” value in assay [1] stood at 42.76 ± 1.56%.

With `O=C(CCCc1cn(Cc2cc(C(F)(F)F)cc(C(F)(F)F)c2)c2ccccc12)Nc1ccc(C(=O)NO)cc1` [Compound I11, 4-(4-(1-(3,5-Bis-trifluoromethyl-benzyl)-1H-indol-3-yl)butanamido)-N-hydroxybenzamide], the IC50 amounted to 4.58 ± 0.23 µM with U937 cells, 0.74 ± 0.05 µM in the assay on U266 cells and 4.76 ± 0.61 µM in the assay with HepG2 cells. The “HDACs, percentage inhibition rate (PIR)” value in assay [1] is 52.24 ± 1.10%.

As to `CCNNC(=O)c1ccc(NC(=O)CCCc2c[nH]c3ccccc23)cc1` [Compound I1e1, N-[4-(N′-Ethyl-hydrazinocarbonyl)-phenyl]-4-(1H-indol-3-yl)-butyramide], in the assay on U266 cells, the half-maximal inhibitory concentration (IC50) was determined as 15.97 ± 0.14 µM. Further, the “HDACs, percentage inhibition rate (PIR)” value in assay [1] was 50.60 ± 2.02%.

With `CCCCNNC(=O)c1ccc(NC(=O)CCCc2c[nH]c3ccccc23)cc1` [Compound I1e3, N-[4-(N′-Butyl-hydrazinocarbonyl)-phenyl]-4-(1H-indol-3-yl)-butyramide], the IC50 in the assay on U266 cells was determined as 1.06 ± 0.05 µM. In addition, in assay [1], the “HDACs, percentage inhibition rate (PIR)” value worked out at 30.47 ± 1.17%.

As for `CCCCNNC(=O)c1ccc(NC(=O)CCCc2cn(C)c3ccccc23)cc1` [Compound I13e3, N-[4-(N′-Butyl-hydrazinocarbonyl)-phenyl]-4-(1-methyl-1H-indol-3-yl)-butyramide], the IC50 in the assay on U266 cells turned out to be 1.36 ± 0.06 µM. In addition, in assay [1], the “HDACs, percentage inhibition rate (PIR)” value was determined as 32.15 ± 1.03%.

With `CCCNNC(=O)c1ccc(NC(=O)CCCc2cn(CC)c3ccccc23)cc1` [Compound I3e2, 4-(1-Ethyl-1H-indol-3-yl)-N-[4-(N′-propyl-hydrazinocarbonyl)-phenyl]-butyramide], the 50% inhibitory concentration (IC50) in the assay with U266 cells came to 0.48 ± 0.1 µM. In addition, the “HDACs, percentage inhibition rate (PIR)” value in assay [1] was found to be 36.51 ± 2.93%.

The values above are taken from paper PMC7822065, “Discovery of indole-3-butyric acid derivatives as potent histone deacetylase inhibitors” (Journal of Enzyme Inhibition and Medicinal Chemistry, 2021).
